According to patent US11389456B2, “Compounds and methods for treating oxalate-related diseases” (OxaluRx, Inc., priority 2018, dated 2022):
≈ marks a conversion by molar mass, not a printed value.

Columns and labels:
[1] = target: recombinant full-length human hydroxyacid oxidase 1 (HAO1), the equivalent of hGOX (Homo sapiens (Human), UniProt Q9UJM8); test: In-vitro human glycolate oxidase (hGOX) assay (Amplex red/HRP fluorescence); type: biochemical
Protocol: Biological Activity Assay: In-Vitro Human Glycolate Oxidase (hGOX) Assay
The in-vitro glycolate oxidase assay was performed using recombinant full-length human hydroxyacid oxidase 1 (HAO1), the equivalent of hGOX. […] Purified HAO1 was dissolved in assay buffer consisting of 10 mM NaCl, 110 mM KCl, 2 mM MgCl2, 50 mM HEPES (pH 7.4) and 0.01% Triton™ X-100.

[2] = target: glycolate oxidase (GOX) in HepaRG-CAR cells (Homo sapiens (Human), UniProt Q9UJM8); test: HepaRG-CAR cell-based assay for quantitation of glycolate oxidase inhibition (cellular glycolate flux, GC-MS); conditions: HepaRG-CAR cells, 500 μM glycolate, 48 hours incubation; read-out: IC50
[3] = Solubility in phosphate buffered saline (PBS), pH 7.4; type: physicochemical; conditions: phosphate buffer (PBS), aqueous buffer, kinetic from dmso stock; phosphate buffered saline pH 7.4, 1% DMSO, 1 hour shaking at room temperature
Summary of the method: (§1)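 DMSO stock (10 mM) diluted into 100 mM phosphate buffer pH 7.4, or into deionized distilled water for the aqueous assay, at 1% final DMSO and shaken 1 h at room temperature. After centrifugation, supernatants quantified by LC-MS/MS against a calibration curve with internal standard.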

[4] = Solubility in aqueous solution (deionized, distilled water); type: physicochemical; conditions: kinetic from dmso stock, 1% DMSO, read-out: Aqueous Solubility H2O
Summary of the method: as §1

[5] = Protein binding (plasma equilibrium dialysis); type: in vitro ADME; conditions: 5 hours at 37° C.
Summary of the method: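 Compound spiked into plasma at 1 μM final (0.2% DMSO) and dialysed against phosphate buffer for 5 hours at 37 °C with shaking. Donor and receiver samples, matrix-matched and acetonitrile-quenched with internal standard, quantified by LC/MS/MS alongside 0-hour plasma samples.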

[6] = system: CD1 mice administered 1% ethylene glycol; test: Mouse ethylene glycol model of hyperoxaluria, urinary oxalate; type: in vivo; conditions: CD-1 mice, twice-daily oral gavage 50 mg/kg
Protocol: Mouse Models of Hyperoxaluria for Determining In Vivo Efficacy of hGOX Inhibitors
Male CD1 mice, 6-8 weeks of age (Charles River Labs, Wilmington, Mass.) were administered 1% ethylene glycol ad libitum their drinking water for 14 days. The mice were housed in individual cages, fed ad libitum and 24-h urine collections were initiated on days 1, 5, 9 and 14 using a 15-rack metabolic cage system equipped with a CCS2000 chiller system (Hatteras Instruments, Cary, N.C.) to maintain the samples at 4° C. during collection. Hydrochloric acid (100 μL of 6N) added to the collection vials to acidify the samples and prevent degradation of oxalate before evaluation.
Urine samples were maintained at 4° C. and urinary oxalate concentrations were determined within 24 hours of sample collection using a Trinity Biotech oxalate assay kit (Catalog #591-D). The assay was an enzymatic method based on the oxidation of oxalate by oxalate oxidase followed by measurement of hydrogen peroxide (H2O2) produced during the peroxidase-catalyzed reaction. Briefly, a 1-mL aliquot of each sample was diluted with an equal volume of assay diluent to bring the pH to between 5.0 and 7.0, then placed into purifier tubes (provided in the kit) and mixed for 5 min. The tubes were centrifuged for 5 min at 2000 rpm (1500×g) and the supernatants collected for the oxalate assay. The procedure was specific for oxalate with no special equipment and was easily adaptable for clinical automated analyzers. Each assay included a standard curve prepared with a standardized oxalate control sample (included in the kit) and internal assay control samples for both a normal (0.2-0.3 mmol/L) and elevated (0.86-1.21 mmol/L) level of oxalate.
To evaluate in vivo efficacy, mice were dosed by once-daily oral gavage of compound I-002 in an appropriate vehicle (e.g., phosphate-buffered saline, pH 7.4) at a dosage of 100 mg/kg. […]
The effect of example I-001 in the ethylene glycol model using CD-1 mice was evaluated by twice-daily, oral gavage dosing at 50 mg/kg for 6 days (days 5-11). […]

Sequence of glycolate oxidase (GOX) in HepaRG-CAR cells (Q9UJM8 whole entry): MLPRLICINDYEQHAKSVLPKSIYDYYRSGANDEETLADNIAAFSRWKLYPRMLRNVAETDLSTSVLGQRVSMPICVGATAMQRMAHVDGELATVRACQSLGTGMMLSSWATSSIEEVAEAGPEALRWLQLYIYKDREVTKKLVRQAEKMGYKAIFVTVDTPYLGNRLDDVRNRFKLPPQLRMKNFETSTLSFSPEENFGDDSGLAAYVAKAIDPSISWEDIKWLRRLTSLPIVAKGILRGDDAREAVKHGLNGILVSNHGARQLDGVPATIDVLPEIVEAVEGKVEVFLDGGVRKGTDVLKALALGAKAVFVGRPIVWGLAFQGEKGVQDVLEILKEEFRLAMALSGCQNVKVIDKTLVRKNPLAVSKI
Sequence of recombinant full-length human hydroxyacid oxidase 1 (HAO1), the equivalent of hGOX (Q9UJM8 whole entry): as above

IC50 [1]: 110 nM
IC50 [2]: 1000 nM
solubility at 1 h [3]: 94.5 µM (≈ 24.1 µg/mL)
solubility at 1 h [4]: 83.8 µM (≈ 21.4 µg/mL)
recovery at 5 h, 1 μM [5]: 75.4%
SMILES: O=C(O)c1nn[nH]c1Sc1ccc(Cl)cc1 [Example I-001, 5-((4-chlorophenyl)thio)-1H-1,2,3-triazole-4-carboxylic acid]
decrease of total urinary oxalate values (μmole/24 hr/mL) ([6]; 24-hour urine collection after 3 days of drug treatment): 24%
decrease of total urinary oxalate values (μmole/24 hr/mL) ([6]; 24-hour urine collection after 6 days of drug treatment): 32%
